Here are results for 1 compound from patent US20100130526A1, “Methods for Disease Therapy” (priority 2008, published 2010).

What all share (assay type): in vivo, human
One assay concerns NLRP3 mRNA. Briefly: Microarray analysis of NLRP3 mRNA expression in PBMC of malaria patients before and after chloroquine therapy. Particulars: disease-increased level (2.7-fold), p=0.024, data set GSE5418. The text has this: (§1) (See FIG. 12). […] (See FIG. 12).
The next assay concerns KPNA1 mRNA. Kind of assay: Microarray analysis of KPNA1 mRNA expression in PBMC of malaria patients before and after chloroquine therapy. Particulars: disease-decreased level (3.9-fold), p=0.0015, data set GSE5418.
Excerpt: as §1

For assay [1], the system named is principal components of nuclear import and inflammasome pathways. Kind of assay: Gene expression phenotypes of nuclear import and inflammasome pathways in PBMC of chloroquine-treated malaria patients. Particulars: PBMC of malaria patients treated with chloroquine.
The test system of another assay is NLRP1 mRNA. Kind of assay: Microarray analysis of NLRP1 mRNA expression in PBMC of malaria patients before and after chloroquine therapy. The following applies: disease-decreased level (1.4-fold), p=0.016, data set GSE5418.
Excerpt: as §1

In the next assay the test system is KPNA6 mRNA. Kind of assay: Microarray analysis of KPNA6 mRNA expression in PBMC of malaria patients before and after chloroquine therapy. Particulars: data set GSE5418.
Excerpt: as §1

For `CCN(CC)CCCC(C)Nc1ccnc2cc(Cl)ccc12` (centres unmarked) [chloroquine], the “NLRP3 mRNA expression reduced after chloroquine therapy” value with NLRP3 mRNA was 57%. For the same compound, in the assay with KPNA1 mRNA, the “KPNA1 mRNA expression elevated after chloroquine therapy” value is recorded as 66%. The “Effect on aberrant disease-associated gene expression phenotypes (KPNA1, NLRP1, NLRP3)” value in assay [1] is listed as “partial reversal of the aberrant gene expression phenotypes”. Also, the “NLRP1 mRNA expression elevated after chloroquine therapy” value in the assay on NLRP1 mRNA is 13%. In addition, in the assay with KPNA6 mRNA, the “KPNA6 mRNA expression change after chloroquine therapy” value was “do not manifest statistically significant changes”.
